Measured values reported in patent US20250295619A1, “Use of Salvianolic Acid E in the Preparation of Drugs Targeting Senescent Cells, Inhibiting Tumors or Extending Lifespan” (Shanghai Institute of Nutrition and Health, Chinese Academy …, priority 2024, published 2025).

Test system: SASP
Test: qRT-PCR of typical SASP molecules in BLEO-induced senescent PSC27 cells at different SAE concentrations
Assay type: cell-based, human
Experimental: All data are normalized results compared to the CTRL group. *P<0.05, **P<0.01, ***P<0.001.
To cause cell damage, 50 μg/mL bleomycin (bleomycin, BLEO) was added to the culture medium when PSC27 cells grew to 80% (abbreviated as PSC27-CTRL). After 12 hours of drug treatment, the cells were simply washed 3 times with PBS, left in the culture medium for 7-10 days, and then the subsequent experiments were performed.
Total RNA of cells in the growth phase or stasis phase was extracted with Trizol reagent. 1 mL Trizol was added to each T25 culture flask. The cell layer was scraped off with a cell scraper, transferred into a centrifuge tube and mixed well until not viscous. […]
Samples were loaded according to the above standard, and the reaction conditions were: 95° C. pre-denaturation for 15 seconds, then 95° C. for 5 seconds, 60° C. for 31 seconds, 40 cycles; melting curve conditions were 95° C. for 15 seconds, 60° C. for 30 seconds, 95° C. for 15 seconds. […] After the reaction was completed, the amplification of each gene was checked by software analysis, the corresponding threshold cycle number was derived, and the relative expression of each gene was calculated using the 2-ΔΔCt method. The peak and waveform of the melting curve was analyzed to determine whether the obtained amplification product was a specific single target fragment.

Compound: O=C(/C=C/c1ccc(O)c(O)c1/C(=C\c1ccc(O)c(O)c1)C(=O)O[C@H](Cc1ccc(O)c(O)c1)C(=O)O)O[C@H](Cc1ccc(O)c(O)c1)C(=O)O [SAE, salvianolic acid E]
- inhibition of SASP development at lower or higher concentrations (compared with 50 μM): less effective
- working concentration that inhibited SASP development with the greatest efficiency (concentration gradient, senescent PSC27): 50 µM
